Where “and” joins values, the source holds several entries; their conditions need not be identical. Equal values may be shown once. Read-outs that look alike come from different tables or passages of the source.

Assay [1] has as its system Human Multiple Myeloma Cells (MM.1S). Description: Antiproliferative activity on MM.1S in the presence of beta adrenergic receptor antagonist (CGP 12177A or ICI 118,551). It is filed as cell-based.
A further assay has as its system beta 3 vs. beta 2. The note with it: Mol Phar 1994 46(2):357-63; cited from earlier work.
In assay [2] the test system is Human Multiple Myeloma Cells (MM.1S). The assay is described as follows: Anti-proliferation assay (ATPLite, 72 hours), MM.1S.
The test system of assay [3] is Human Multiple Myeloma Cells (EJM). Description: Anti-proliferation assay (ATPLite, 72 hours), EJM. As to conditions: for Antiproliferative Activity: DEX μM r7-r15: 2.03, 0.675, 0.225, 0.075, 0.025, 0.00834, 0.00278, 0.00093, 0. For orientation: Cellular ATP, detected with luciferase, serves as a proxy for viable cell number.
The test system of the next assay is MM.1S cells. Description: Annexin V / propidium iodide apoptosis assay, MM.1S. It is filed as cell-based, human. The note with it: for induction of MM.1S cell apoptosis: 72 hours (FIG. 2). As to the method:
Effects on cell viability were determined by measuring the percent of cells that were annexin V positive (an early marker for apoptosis) and by measuring the percent of cells propidium iodide (PI) positive, an indicator that cellular membranes are compromised and a marker of cell death.

The next assay relates to RPMI-8226 cells. The note with it: soft agar, three weeks. As to the method: The effect of BAR agonists on cells grown in soft agar was also determined. This approach allows the measurement of long term cell viability after single agent or combination treatment. […] Cells were washed and plated in soft agar. After three weeks colonies were counted to determine cell viability.

For assay [4], the system named is RPMI-8226 multiple myeloma (MM) xenograft. The note with it: Day 19; 10 mg/kg salmeterol, 0.5 mg/kg bortezomib, or both. The protocol:
Dexamethasone was administered by intraperitoneal (IP) injection daily for thirty-six treatments (QD×36). Bortezomib was injected intravenously (IV) every third day for six treatments (Q3D×6).
Group 1—Vehicle (90% PBS+10% EtOH)
Significant endpoints included mean tumor growth inhibition (TGI) or regression, animal weight loss, and potential toxicity. […] Animals were implanted with cancer cells harvested from tissue culture and allowed to establish tumors in SCID mice. Treatment initiated when the mean tumor volume reached 137 mm^3 in size.

Assay [5] deals with Human Multiple Myeloma Cells (MM.1S).
Assay [6] concerns multiple myeloma tumor cells from patients. Description: MTT cell viability assay, multiple myeloma patient tumor cells. As to conditions: Homo sapiens, 48 h, read-out: tumor cell viability. On the technique in general: Formazan colour is commonly taken as a measure of viable cells.
Source text: Tumor cells were obtained via bone marrow aspirates and affinity selected using CD138-linked magnetic beads.
Assay [7] has as its system Human Multiple Myeloma Cells (ANBL-6). The assay is described as follows: Anti-proliferation assay (ATPLite, 72 hours), ANBL-6.
Assay [8] concerns human multiple myeloma cells (MM.1R). Description: Antiproliferative activity of salbutamol on MM.1R after transfection of siRNA. The assay is classed as cell-based. As to conditions: 72 hours (FIG. 4). As to the method:
Specific gene silencing was greater than 60% as determined by real time PCR analysis 48 hours post-transfection. At 48 hours post-transfection, cells were exposed to the beta 2 receptor agonist salbutamol and incubated an additional 72 hours, and the compounds were assayed for antiproliferative activity.

Assay [9] concerns Human Multiple Myeloma Cells (MM.1S) cultured in the presence of BAR agonist for one month. The assay is described as follows: Antiproliferative activity on MM.1S cultured one month in the presence of salmeterol or salbutamol. It is filed as cell-based. As to conditions: MM.1S cultured in Salbutamol for one month (final 150 nM), DEX (μM): 2.0, 0.666, 0.23, 0.074, 0.024, 0.0082, 0.00274, 0.0009, 0. The source says:
A recurrent problem in cancer therapy is that prolonged exposure of tumor cells to chemotherapeutic agents can generate cells resistant to agents that initially have antiproliferative or cell killing activity. […] Cells cultured for one month in the presence of BAR agonist were washed to remove drug and put into 384 well plates for 9×9 dose matrix combination screening with BAR agonists and dexamethasone.

The mark [10] stands for this setting: Homo sapiens, MM1.S, read-out: percent inhibition of cell proliferation.
Where [11] appears, read: Homo sapiens, Multiple myeloma cell, 72 h, read-out: percent inhibition of cell proliferation.
Setting [12] is: Homo sapiens, MM1.S, 72 h, read-out: percent inhibition of cell proliferation.
The mark [13] stands for this setting: Homo sapiens, MM1.S, 72 h, read-out: percent inhibition (% I).
Setting [14] is: Homo sapiens, MM1.S, read-out: Antiproliferative Activity (inhibition of proliferation).
Where [15] appears, read: Homo sapiens, ANBL-6, 72 h, read-out: percent inhibition (% I).
The mark [16] stands for this setting: Homo sapiens, ANBL-6, read-out: percent inhibition of cell proliferation.

For `CC(Cc1ccc(OCC(=O)O)cc1)NCC(O)c1cccc(Cl)c1` (stereo not drawn) [BRL37344, (4-(2-((2-(3-chlorophenyl)-2-hydroxyethyl)amino)propyl)phenoxy)acetic acid], the values for the inhibition at 0.01 µM in assay [1] (setting [10]) and in [2] (setting [10]) were -8.2% and 10%, respectively. Moreover, the inhibition at 0.02 µM in [1] (setting [10]) was -12%; in assay [2] (setting [10]) it was 10%. Moreover, in the assay with beta 3 vs. beta 2, the “selectivity for beta 3 vs. beta 2” value is 76 fold. In assay [2] (MM.1S (Table 45)), the “single agent antiproliferative activity” value is listed as “not very active”.
Regarding `CC(C)(C)NCC(O)c1cc(Cl)c(N)c(Cl)c1` (stereo not drawn) [Clenbuterol], in assay [2] (setting [10]), the inhibition at 0.0006 µM turned out to be 66%; the inhibition at 0.01 µM was 78%; the inhibition at […] was 61% and 62% and 57%.
As for `CC(CCc1ccc(O)cc1)NCCc1ccc(O)c(O)c1` (stereo not drawn) [Dobutamine, dobutamine], the inhibition at […] in [1] (Homo sapiens, MM1.S, in the presence of 0.91 μM ICI, 118,551, Dobutamine 0.063 μM, Dexamethasone (μM) by row: r8 0.15, r9 0.076, r10 0.038, r11 0.019, r12 0.0095, r13 0, read-out: percent inhibition of cell proliferation) was 2.2%; in [1] (Homo sapiens, MM1.S, in the presence of 0.91 μM ICI, 118,551, Dobutamine 0.13 μM, Dexamethasone (μM) by row: r8 0.15, r9 0.076, r10 0.038, r11 0.019, r12 0.0095, r13 0, read-out: percent inhibition of cell proliferation), 2%; in assay [1] (Homo sapiens, MM1.S, in the presence of 0.91 μM ICI, 118,551, Dobutamine 0.25 μM, Dexamethasone (μM) by row: r8 0.15, r9 0.076, r10 0.038, r11 0.019, r12 0.0095, r13 0, read-out: percent inhibition of cell proliferation), -5.4%; in [1] (Homo sapiens, MM1.S, in the presence of 0.91 μM ICI, 118,551, Dobutamine 0.51 μM, Dexamethasone (μM) by row: r8 0.15, r9 0.076, r10 0.038, r11 0.019, r12 0.0095, r13 0, read-out: percent inhibition of cell proliferation) it was -2.8%. For the same molecule, the inhibition at 1 µM in [1] (Homo sapiens, MM1.S, in the presence of 0.91 μM ICI, 118,551, Dobutamine 1.0 μM, Dexamethasone (μM) by row: r8 0.15, r9 0.076, r10 0.038, r11 0.019, r12 0.0095, r13 0, read-out: percent inhibition of cell proliferation) is -1.8%; in [2] (setting [10]), 28%. Besides, the values for the inhibition at 0.0316 µM in assay [3] (setting [11]) and in assay [2] (setting [12]) were -2.3% and -2.04%, respectively. The values for the inhibition at 0.506 µM in assay [3] (setting [11]) and in [2] (setting [12]) were 21.5% and 22.9%, respectively.
As for `Cc1ccc(OCC(O)C(C)NC(C)C)c2c1CCC2` (stereo not drawn) [ICI, 118,551], the “percent inhibition of cell proliferation” value in assay [1] (in the presence of […] ICI, 118,551, Dobutamine 0 μM, Dexamethasone (μM) by row: r8 0.15, r9 0.076, r10 0.038, r11 0.019, r12 0.0095, r13 0 (ICI alone)) is 1.9%.
As for `CCC(NC(C)C)C(O)c1ccc(O)c(O)c1` (stereo not drawn) [Isoetharine], the “Antiproliferative Activity” value in [3] (Isoetharine 0.000158 μM) worked out at 7.35; in assay [3] (Isoetharine 0.000316 μM) it was 7.35; in assay [3] (Isoetharine 0.00506 μM), 29.
Broadly, the viability is a read-out of living cells in per cent, often relative to untreated cells. As to `CC(C)C[C@H](NC(=O)[C@H](Cc1ccccc1)NC(=O)c1cnccn1)B(O)O` [bortezomib], the “cells annexin V positive” value in the assay with MM.1S cells (2 nM bortezomib, 72 hours (FIG. 3)) is 50%. The “colony number per 10,000 cells plated” value with RPMI-8226 cells (100 nM bortezomib for 5 hours) was 39 colonies; in the assay with RPMI-8226 cells (200 nM bortezomib for 5 hours), 7 colonies. Besides, the “tumor growth inhibition (TGI)” value in assay [4] is recorded as 38%. Moreover, in assay [5], the inhibition is 30.8% and 19.6%. Also, the viability at 0.002 µM in [6] was 80%.
Take `COc1ccc(CC(C)NCC(O)c2ccc(O)c(NC=O)c2)cc1` (stereo not drawn) [formoterol]: in assay [2] (setting [13]), the inhibition at 2.53 pM was determined as 18.9%, the inhibition at 5.06 pM amounted to 23.8%, the inhibition at 10.1 pM worked out at 40.8% and the inhibition at 20.2 pM is 52.7%. Moreover, in assay [2] (setting [13]), the inhibition at 40.5 pM stood at 54.7% and the inhibition at 81 pM was 65.9%. In addition, in assay [2] (setting [14]), the inhibition at 2.53 pM was determined as 22.4%, the inhibition at 5.06 pM was 36.2%, the inhibition at 10.1 pM came to 40.7% and the inhibition at 20.2 pM turned out to be 51%. In addition, in [2] (setting [14]), the inhibition at 40.5 pM was found to be 57.5% and the inhibition at 81 pM was 65.7%. Moreover, in [2] (Homo sapiens, MM1.S, read-out: inhibition of proliferation, single agent), the inhibition at 20.2 pM is 51%. Also, in assay [7] (setting [15]), the inhibition at 2.53 pM came out at 23.3%, the inhibition at 5.06 pM was 26.7%, the inhibition at 10.1 pM was found to be 30% and the inhibition at 20.2 pM turned out to be 39.9%. Besides, in [7] (setting [15]), the inhibition at 40.5 pM amounted to 48.8% and the inhibition at 81 pM came to 55.4%.
For `Nc1cccc2c1CN(C1CCC(=O)NC1=O)C2=O` (stereo not drawn) [lenalidomide], the “induction of MM.1S cell apoptosis” value with MM.1S cells (1 μM lenalidomide) is given as “negligible effects”. In [7] (Salmeterol 0 μM (LEN alone), LEN μM r7-r15: 4.04, 2.02, 1.01, 0.505, 0.253, 0.126, 0.0632, 0.0316, 0), the “Antiproliferative Activity” value is 53.5 and 51.8 and 52.5 and 44.8 and 34.3 and 61.9 and 52.8 and 54.3.
Consider `CC(C)(C)NCC(O)c1ccc(O)c(CO)c1` (stereo not drawn) [salbutamol], for which the inhibition of proliferation in assay [8] (MM.1R transfected with A2A receptor siRNA or control siRNA) is given as 65-68%. Moreover, the Antiproliferative Activity in [8] (MM.1R transfected with two different siRNA targeting the beta 2 receptor) is listed as 39-45%. Moreover, in [9] (Salbutamol 0.00375 μM), the “percent inhibition of cell proliferation” value was −5.8%. The “percent inhibition of cell proliferation” value in [9] (Salbutamol 0.00625 μM) is given as 4.6%. In addition, the “percent inhibition of cell proliferation” value in assay [9] (Salbutamol 0.0125 μM) is given as −1.9%. Besides, the “percent inhibition of cell proliferation” value in [9] (Salbutamol 0.05 μM) was 1.5%. Also, the “percent inhibition of cell proliferation” value in assay [9] (Salbutamol 0.1 μM) worked out at 11%. In addition, the “percent inhibition of cell proliferation” value in [9] (Salbutamol 0.2 μM) turned out to be 6.8%. In addition, in [2] (setting [10]), the inhibition at 9.1 pM amounted to 10%, the inhibition at 0.00375 µM came out at 15%, the inhibition at 0.00625 µM stood at 30% and the inhibition at 0.0125 µM was 39%. Also, in assay [2] (setting [10]), the inhibition at 0.05 µM is 51%, the inhibition at 0.1 µM is 55% and the inhibition at 0.2 µM amounted to 58%.
With `COc1cc2c(cc1OC)-c1cc(=Nc3c(C)cc(C)cc3C)n(C)c(=O)n1CC2` [trequinsin, 2,3,6,7-tetrahydro-9,10-dimethoxy-3-methyl-2-((2,4,6-trimethylphenyl)imino)-4H-pyrimido(6,1-a)isoquinolin-4-one], the “induction of MM.1S cell apoptosis” value in the assay on MM.1S cells (2 μM trequinsin) is reported as “negligible effects”. Besides, in assay [7] (setting [16]), the inhibition at 0.00464 µM turned out to be 2.91%, the inhibition at 0.125 µM was 4.39% and the inhibition at 0.375 µM was 7.82%.

The values above are taken from patent publication US20100009934A1, “BETA ADRENERGIC RECEPTOR AGONISTS FOR THE TREATMENT OF B-CELL PROLIFERATIVE DISORDERS” (CombinatoRx, Incorporated, priority 2008, published 2010).
